Experimental data published in US11008295B2, “Compounds having antiinfective, antitumoral and antifungal activity” (priority 2017, dated 2021).
Read-outs that look alike come from different tables or passages of the source.

How the values were obtained:
T. pulmonis = assay: Kirby-Bauer disk diffusion susceptibility test; assay type: cell-based, Tsukamurella pulmonis; conditions: T. pulmonis; zone of inhibition; 200 μg/disc
Experimental: (§1) Bacterial strains, from clinical origin, were supplied by the National Center for Microbiology, Institute of Health Carlos III (Majadahonda, Madrid). They are detailed in Table I.
(§2) Bacterial cells suspension in sterile saline was prepared from a culture of 24-72 h, depending on bacterial species, in Mueller-Hinton Agar with 5% sheep blood. Each suspension was adjusted to a fixed size inoculum of 1-5×10^8 CFU/ml with a spectrophotometer (Ferraro, M J National Committee for Clinical Laboratory Standards. 2000).
(§3) Kirby-Bauer disk diffusion susceptibility test protocol was utilized to determine the sensitivity or resistance of pathogenic bacteria against the compounds and others antibiotics. The absence of growth around the disks is an indirect measure of the ability of this compound to inhibit an organism (Kirby, W. et al., Antibiotics Annu. 1956-1957:892). After 18 to 72 hours of incubation at […], with or without CO2, under aerobic or anaerobic conditions, depending on the bacterial species, halo of growth inhibition were obtained and evaluated.
(§4) Interpretation of susceptibility and resistance was based on the presence or absence of a zone of inhibition surrounding the disk. Kirby-Bauer disk diffusion susceptibility test is a common method which uses antibiotic-impregnated wafers to test whether bacteria are affected by antibiotics. The size of the zone of inhibition depends on how effective the antibiotic is at stopping the growth of the bacterium. A stronger antibiotic will create a larger zone, because a lower concentration of the antibiotic is enough to stop growth.

E. coli = assay: Kirby-Bauer disk diffusion susceptibility test; assay type: cell-based; conditions: E. coli; zone of inhibition; 200 μg/disc
Experimental: as §1, §2, §3, §4

S. epidermidis = assay: Kirby-Bauer disk diffusion susceptibility test; assay type: cell-based; conditions: S. epidermidis; zone of inhibition; 200 μg/disc
Experimental: as §1, §2, §3, §4

S. aureus = assay: Kirby-Bauer disk diffusion susceptibility test; assay type: cell-based; conditions: S. aureus; zone of inhibition; 200 μg/disc
Experimental: as §1, §2, §3, §4

E. faecium = assay: Kirby-Bauer disk diffusion susceptibility test; assay type: cell-based; conditions: E. faecium; zone of inhibition; 200 μg/disc
Experimental: as §1, §2, §3, §4

M. fortuitum = assay: Kirby-Bauer disk diffusion susceptibility test; assay type: cell-based; conditions: M. fortuitum; zone of inhibition; 200 μg/disc
Experimental: as §1, §2, §3, §4

E. faecalis = assay: Kirby-Bauer disk diffusion susceptibility test; assay type: cell-based; conditions: E. faecalis; zone of inhibition; 200 μg/disc
Experimental: as §1, §2, §3, §4

M. chelonae = assay: Kirby-Bauer disk diffusion susceptibility test; assay type: cell-based; conditions: M. chelonae; zone of inhibition; 200 μg/disc
Experimental: as §1, §2, §3, §4

N. cyriacigeorgica = assay: Kirby-Bauer disk diffusion susceptibility test; assay type: cell-based; conditions: N. cyriacigeorgica; zone of inhibition; 200 μg/disc
Experimental: as §1, §2, §3, §4

P. aeruginosa = assay: Kirby-Bauer disk diffusion susceptibility test; assay type: cell-based; conditions: P. aeruginosa; zone of inhibition; 200 μg/disc
Experimental: as §1, §2, §3, §4

A. fumigatus = assay: Antifungal disk diffusion susceptibility test (CLSI M44); assay type: cell-based
Experimental: (§5) Filamentous fungi and yeasts strains, from clinical origin, were supplied by Microbiology Service from The Princess Hospital, Madrid. They are detailed in Table III.
(§6) Filamentous fungi and yeast cells suspensions in distilled water was prepared from a culture of 24-48 h, depending on species, in Sabouraud agar. Each suspension was adjusted to a fixed size inoculum of 1-5×10^8 CFU/ml with a spectrophotometer (Ferraro, M J National Committee for Clinical Laboratory Standards. 2000).
(§7) Antifungal susceptibility tests were developed following the standardized methodology detailed in document CLSI: M44-4: Method for Antifungal Disk diffusion susceptibility testing of yeasts consisting of disk diffusion on agar Muller-Hinton (supplemented with 2% glucose).

A. terreus = assay: as above; assay type: cell-based
Experimental: as §5, §6, §7

A. niger = assay: as above; assay type: cell-based
Experimental: as §5, §6, §7

C. glabrata = assay: as above; assay type: cell-based
Experimental: as §5, §6, §7

A. flavus = assay: as above; assay type: cell-based
Experimental: as §5, §6, §7

C. albicans = assay: as above; assay type: cell-based
Experimental: as §5, §6, §7

C. guilliermondii = assay: as above; assay type: cell-based
Experimental: as §5, §6, §7

C. lusitaniae = assay: as above; assay type: cell-based
Experimental: as §5, §6, §7

C. tropicalis = assay: as above; assay type: cell-based
Experimental: as §5, §6, §7

HIV = assay: microbe, parasite or virus in culture; assay type: cell-based; conditions: for safety index: anti-HIV activity/toxicity profile, MT-2 cells
Excerpt: Assessment of in vitro antiviral activity is usually performed to estimate parameters of antiviral potency and efficacy represented by the percentage of inhibition of HIV activity or IC50. The assay utilized is based on the use of recombinant viruses in which the nef gene, […] for in vitro HIV replication, has been replaced by a Renilla reporter gene so that viral replication can be quantified directly (Garcia-Perez J et al, J Med Virol. 2007 February; 79(2):127-37). The assay was performed infecting MT-2 cells or PHA-activated PBMCs/IL-2 with viral supernatants obtained previously. The study was development in AIDS Immunopathology Unit, National Center of Microbiology, Institute of Health Carlos III, Majadahonda, Madrid, Spain.
All data are expressed as percentage relative to a control with DMSO at the same concentration. Antiviral activity and toxicity curves were performed to the compound at different concentrations.

N. carnea = assay: Kirby-Bauer disk diffusion susceptibility test; assay type: cell-based, Nocardia carnea; conditions: N. carnea; zone of inhibition; 200 μg/disc
Experimental: as §1, §2, §3, §4

[1] = Cellular viability (CellTiter Glo) in parallel to the anti-HIV assay; assay type: cell-based; conditions: human; concentration required to kill 50% of cells; MT-2 cells; read-out: CC50 VIH MT-2
Experimental: All assays for assessing anti-HIV activity were taken in parallel to determine cellular viability of the culture in the presence or absence of different concentrations of the isolated molecule. It was followed exactly the same methodology as in the anti-HIV assay except with the addition of complete DMEM medium instead of supernatant viral, in the same proportion, and the detection of the viability was performed with the viability detection kit CellTiter Glo (Promega), following manufacturer instructions. Viability is directly proportional to the luciferase activity obtained. All data are expressed as percentage relative to a control with DMSO at the same concentration. Antiviral activity and toxicity curves were performed to the compound at different concentrations.

M. abscessus = assay: Kirby-Bauer disk diffusion susceptibility test; assay type: cell-based, Mycobacterium abscessus; conditions: M. abscessus; zone of inhibition; 200 μg/disc
Experimental: as §1, §2, §3, §4

C. parapsilopsis = assay: Antifungal disk diffusion susceptibility test (CLSI M44); assay type: cell-based, C. parapsilosis
Experimental: as §5, §6, §7

[2] = test system: CAL33 cell line (head and neck); assay: MTT assay, antitumor activity; assay type: cell-based
B. cereus = assay: Kirby-Bauer disk diffusion susceptibility test; assay type: cell-based, Bacillus cereus; conditions: B. cereus; zone of inhibition; 200 μg/disc
Experimental: as §1, §2, §3, §4

HT29 cell line (colon) = assay: MTT assay, antitumor activity; assay type: cell-based
A. baumannii = assay: Kirby-Bauer disk diffusion susceptibility test; assay type: cell-based; conditions: A. baumannii; zone of inhibition; 200 μg/disc
Experimental: as §1, §2, §3, §4

MCF7 cell line (breast) = assay: MTT assay, antitumor activity; assay type: cell-based
[3] = Human immunodeficiency virus 1, MT2
[4] = Human immunodeficiency virus 1, MT2, read-out: IC50 VIH MT-2

Structure (SMILES)	Activity (mm), 200 μg/disc (T. pulmonis) [mm]	Activity (mm), 200 μg/disc (E. coli) [mm]	Activity (mm), 200 μg/disc (S. epidermidis) [mm]	Activity (mm), 200 μg/disc (S. aureus) [mm]	Activity (mm), 200 μg/disc (M. fortuitum) [mm]	Activity (mm), 200 μg/disc (M. chelonae) [mm]	Activity (mm), 200 μg/disc (N. cyriacigeorgica) [mm]	Activity (mm), 200 μg/disc (P. aeruginosa) [mm]	Activity (mm), 200 μg/disc (A. fumigatus) [mm]	Activity (mm), 200 μg/disc (A. terreus) [mm]	Activity (mm), 200 μg/disc (A. niger) [mm]	Activity (mm), 200 μg/disc (C. glabrata) [mm]	Activity (mm), 200 μg/disc (A. flavus) [mm]	Activity (mm), 200 μg/disc (C. albicans) [mm]	Activity (mm), 200 μg/disc (C. guilliermondii) [mm]	Activity (mm), 200 μg/disc (C. lusitaniae) [mm]	Activity (mm), 200 μg/disc (C. tropicalis) [mm]	IC50 (HIV; [3]) [nM]	IC50 (HIV; [4]) [nM]	safety index (HIV)	also measured
CCCCCC1=NN(C(=O)CCOC(=O)CCC(=O)O)OC(CCCCC)C1 (centres unmarked) [DOXA-1]	34	9	22	20	30	34	35	9	15	18	18	30	20	25	38	38	30	130	130	more than 60	Activity (mm), 200 μg/disc (E. faecium): 34 mm; Activity (mm), 200 μg/disc (E. faecalis): 34 mm; Activity (mm), 200 μg/disc (N. carnea): 40 mm; CC50 [1]: 8200 nM; Activity (mm), 200 μg/disc (M. abscessus): 32 mm; Activity (mm), 200 μg/disc (C. parapsilopsis): 30 mm; Inhibition of cell line ([2]; 750 nM): moderate inhibition; Activity (mm), 200 μg/disc (B. cereus): 36 mm; Inhibition of cell line (HT29 cell line (colon); 750 nM): moderate inhibition
CCCCCC1=NN(C(=O)CCOC(C)=O)OC(CCCCC)C1 (centres unmarked) [DOXA-2]	41	9	10	10	25	30	26	9	30	40	40	18	38	18	28	20	20	84	84	about 100	Activity (mm), 200 μg/disc (A. baumannii): 9 mm; Activity (mm), 200 μg/disc (N. carnea): 25 mm; CC50 [1]: 7720 nM; Activity (mm), 200 μg/disc (M. abscessus): 25 mm; Activity (mm), 200 μg/disc (C. parapsilopsis): 18 mm; Concentration of optimal inhibition [2]: 100 nM; Concentration at which proliferation was inhibited ([2]; 10-750 nM, 24, 48 and 72 hours): 50 nM; Activity (mm), 200 μg/disc (B. cereus): 20 mm; Concentration at which proliferation was inhibited (MCF7 cell line (breast)): 250 nM; Concentration of best inhibition (HT29 cell line (colon)): 50 nM
